From ChEMBL document CHEMBL3046389, “Synthesis and biological evaluation of novel hydroquinone dimethyl ethers as potential anticancer and antimicrobial agents” (2013)
≈ marks a conversion by molar mass, not a printed value.

Experiments:
Format in all cases: functional
[1] = tested on: Bacillus subtilis; assay: Antimicrobial activity against Bacillus subtilis ATCC 6633 after 48 hr by two-fold serial broth dilution method; conditions: ATCC 6633, 48 h
[2] = tested on: SNB-75; assay: Growth inhibition of Homo sapiens (human) SNB75 cells at 10 uM after 48 hr by SRB assay; conditions: SNB-75, 48 h, read-out: GI
[3] = tested on: MCF7; assay: Anticancer activity against Homo sapiens (human) MCF7 cells after 48 hr by SRB assay; conditions: MCF7, 48 h
[4] = tested on: SK-MEL-2; assay: Anticancer activity against Homo sapiens (human) SK-MEL-2 cells after 48 hr by SRB assay; conditions: SK-MEL-2, 48 h
[5] = tested on: SF-268; assay: Anticancer activity against Homo sapiens (human) SF268 cells after 48 hr by SRB assay; conditions: SF-268, 48 h
[6] = tested on: IGROV-1; assay: Anticancer activity against Homo sapiens (human) IGROV1 cells after 48 hr by SRB assay; conditions: IGROV-1, 48 h
[7] = tested on: MOLT-4; assay: Growth inhibition of Homo sapiens (human) MOLT4 cells at 10 uM after 48 hr by SRB assay; conditions: MOLT-4, 48 h, read-out: GI
[8] = tested on: SF-539; assay: Growth inhibition of Homo sapiens (human) SF539 cells at 10 uM after 48 hr by SRB assay; conditions: SF-539, 48 h, read-out: GI
[9] = tested on: CCRF-CEM; assay: Anticancer activity against Homo sapiens (human) CCRF-CEM cells after 48 hr by SRB assay
[10] = tested on: HCT-116; assay: Anticancer activity against Homo sapiens (human) HCT116 cells after 48 hr by SRB assay; conditions: HCT-116, 48 h
[11] = tested on: HT-29; assay: Anticancer activity against Homo sapiens (human) HT-29 cells after 48 hr by SRB assay; conditions: HT-29, 48 h
[12] = tested on: Malme-3M; assay: Anticancer activity against Homo sapiens (human) MALME-3M cells after 48 hr by SRB assay
[13] = tested on: A549; assay: Growth inhibition of Homo sapiens (human) A549/ATCC cells at 10 uM after 48 hr by SRB assay; conditions: A549, 48 h, read-out: GI
[14] = tested on: Candida albicans; assay: Antimicrobial activity against Candida albicans DSM 70014 after 48 hr by two-fold serial broth dilution method; conditions: DSM 70014, 48 h
[15] = tested on: MDA-MB-231; assay: Anticancer activity against Homo sapiens (human) MDA-MB-231/ATCC cells after 48 hr by SRB assay; conditions: MDA-MB-231, 48 h
[16] = tested on: UACC-257; assay: Anticancer activity against Homo sapiens (human) UACC257 cells after 48 hr by SRB assay; conditions: UACC-257, 48 h
[17] = tested on: CCRF-CEM; assay: Growth inhibition of Homo sapiens (human) CCRF-CEM cells at 10 uM after 48 hr by SRB assay; conditions: read-out: GI
[18] = tested on: SK-MEL-5; assay: Anticancer activity against Homo sapiens (human) SK-MEL-5 cells after 48 hr by SRB assay; conditions: SK-MEL-5, 48 h
[19] = tested on: RXF 393; assay: Growth inhibition of Homo sapiens (human) RXF393 cells at 10 uM after 48 hr by SRB assay; conditions: RXF 393, 48 h, read-out: GI
[20] = tested on: UACC-62; assay: Anticancer activity against Homo sapiens (human) UACC62 cells after 48 hr by SRB assay; conditions: UACC-62, 48 h
[21] = tested on: MDA-MB-435; assay: Growth inhibition of Homo sapiens (human) MDA-MB-435 cells at 10 uM after 48 hr by SRB assay; conditions: MDA-MB-435, 48 h, read-out: GI
[22] = tested on: NCI-H460; assay: Anticancer activity against Homo sapiens (human) NCI-H460 cells after 48 hr by SRB assay; conditions: NCI-H460, 48 h
[23] = tested on: MDA-MB-468; assay: Anticancer activity against Homo sapiens (human) MDA-MB-468 cells after 48 hr by SRB assay; conditions: MDA-MB-468, 48 h
[24] = tested on: UO-31; assay: Growth inhibition of Homo sapiens (human) UO31 cells at 10 uM after 48 hr by SRB assay; conditions: UO-31, 48 h, read-out: GI
[25] = tested on: SW-620; assay: Growth inhibition of Homo sapiens (human) SW620 cells at 10 uM after 48 hr by SRB assay; conditions: SW-620, 48 h, read-out: GI
[26] = tested on: SNB-75; assay: Anticancer activity against Homo sapiens (human) SNB75 cells after 48 hr by SRB assay; conditions: SNB-75, 48 h
[27] = tested on: MCF7; assay: Growth inhibition of Homo sapiens (human) MCF7 cells at 10 uM after 48 hr by SRB assay; conditions: MCF7, 48 h, read-out: GI
[28] = tested on: CAKI-1; assay: Anticancer activity against Homo sapiens (human) CAKI-1 cells after 48 hr by SRB assay; conditions: CAKI-1, 48 h
[29] = tested on: OVCAR-3; assay: Growth inhibition of Homo sapiens (human) OVCAR3 cells at 10 uM after 48 hr by SRB assay; conditions: OVCAR-3, 48 h, read-out: GI
[30] = tested on: HOP-62; assay: Anticancer activity against Homo sapiens (human) HOP62 cells after 48 hr by SRB assay; conditions: HOP-62, 48 h
[31] = tested on: A498; assay: Anticancer activity against Homo sapiens (human) A498 cells after 48 hr by SRB assay; conditions: A498, 48 h
[32] = tested on: NCI-H23; assay: Anticancer activity against Homo sapiens (human) NCI-H23 cells after 48 hr by SRB assay; conditions: NCI-H23, 48 h
[33] = read-out: LC50 (the source's name)

## COc1ccc(OC)c(/C=C/C(=O)N/N=C/c2ccccc2)c1
[1]
  MBC: 100 µg/mL (≈ 322 µM)
  MIC: 50 µg/mL (≈ 161 µM)
[2]
  inhibition of growth at 10 µM: 58.9%
[3]
  GI50: 3.79 µM
  TGI: > 100 µM
[3]; [33]
  CC50: > 100 µM
[4]
  GI50: 2.98 µM
  TGI: 9.32 µM
[4]; [33]
  CC50: > 100 µM
[5]
  GI50: 7.56 µM
  TGI: > 100 µM
[5]; [33]
  CC50: > 100 µM
[6]
  GI50: 1.51 µM
  LC50 (50% lethal concentration): > 100 µM
  TGI: > 100 µM
[7]
  inhibition of growth at 10 µM: 63.5%
[8]
  inhibition of growth at 10 µM: 48.2%
[9]
  GI50: 3.97 µM
  TGI: > 100 µM
[9]; [33]
  CC50: > 100 µM
[10]
  GI50: 2.64 µM
  TGI: 10.2 µM
[10]; [33]
  CC50: 67.2 µM
[11]
  GI50: 2.1 µM
  TGI: > 100 µM
[11]; [33]
  CC50: > 100 µM
[12]
  GI50: 2.12 µM
  TGI: > 100 µM
[12]; [33]
  CC50: > 100 µM
[13]
  inhibition of growth at 10 µM: 51.6%
[14]
  MFC: 100 µg/mL (≈ 322 µM)
  MIC: 100 µg/mL (≈ 322 µM)
[15]
  GI50: 7.24 µM
  TGI: > 100 µM
[15]; [33]
  CC50: > 100 µM
[16]
  GI50: 5.76 µM
  LC50 (50% lethal concentration): > 100 µM
  TGI: 33.6 µM
[17]
  inhibition of growth at 10 µM: 44.8%
[18]
  GI50: 2.94 µM
  LC50: > 100 µM
  TGI: 14.6 µM
[19]
  inhibition of growth at 10 µM: 54.6%
[20]
  GI50: 3.55 µM
  LC50: > 100 µM
  TGI: 75.8 µM
[21]
  inhibition of growth at 10 µM: 108%
[22]
  GI50: 2.08 µM
  TGI: 5.62 µM
[22]; [33]
  CC50: 28.3 µM
[23]
  GI50: 1.96 µM
  TGI: 6.47 µM
[23]; [33]
  CC50: 61.6 µM
[24]
  inhibition of growth at 10 µM: 43.4%
[25]
  inhibition of growth at 10 µM: 71.3%
[26]
  GI50: 4.39 µM
  TGI: 37.3 µM
[26]; [33]
  CC50: > 100 µM
[27]
  inhibition of growth at 10 µM: 82.7%
[28]
  GI50: 0.443 µM
  TGI: 6.66 µM
[28]; [33]
  CC50: > 100 µM
[29]
  inhibition of growth at 10 µM: 94%
[30]
  GI50: 4.95 µM
  TGI: > 100 µM
[30]; [33]
  CC50: > 100 µM
[31]
  GI50: 12 µM
  LC50: > 100 µM
  TGI: > 100 µM
[32]
  GI50: 5.4 µM
  TGI: 87 µM
[32]; [33]
  CC50: > 100 µM
